Data from ChEMBL document CHEMBL6134865, “Rational Design of Methylene Blue-Raloxifene Conjugates for Efficient Breast Tumor Elimination Triggered by ERα Degradation” (J Med Chem, 2025).
Active and inactive are the calls of the source. The rule behind the calls is not given here.

How the values were obtained:
[1] = Induction of ROS generation in water at 1 uM irradiated with 660 nm 0.4 W/cm2 light up to 180 sec by DCFH probe based fluorescence spectra analysis; type: functional
[2] = Photothermal effect of compound in water assessed as increase in temperature of solution at 1 uM incubated for 5 mins in presence of presence of 660 nm 0.2 to 1.5 W/cm2 light; type: functional
[3] = Cytotoxicity against human MCF-10A cells assessed as inhibition of cell proliferation incubated for 48 hrs in absence of light irradiation by MTT assay; type: toxicity, cell-based
[4] = tested on: MCF7; assay: Induction of ROS generation in human MCF7 cells assessed as cell percentage with elevated ROS at 1 uM incubated for 6 hrs by DCFH-DA probe based flow cytometric analysis (reference value: 0.2 %); type: functional
[5] = tested on: MCF7; assay: Induction of ROS generation in human MCF7 cells assessed as cell percentage with elevated ROS at 1 uM incubated for 6 hrs followed by irradiation with 660 nm 0.4 W/cm2 light for 1 min by DCFH-DA probe based flow cytometric analysis (reference value: 0.2 %); type: functional; conditions: time 361 min, 6.017 h
[6] = tested on: MCF7; assay: Induction of ROS generation in human MCF7 cells assessed as cell percentage with elevated ROS at 1 uM incubated for 6 hrs followed by irradiation with 660 nm 0.4 W/cm2 light for 2 min by DCFH-DA probe based flow cytometric analysis (reference value: 0.2 %); type: functional; conditions: time 362 min, 6.033 h
[7] = tested on: MCF7; assay: Induction of ROS generation in human MCF7 cells assessed as cell percentage with elevated ROS at 1 uM incubated for 6 hrs followed by irradiation with 660 nm 0.4 W/cm2 light for 4 min by DCFH-DA probe based flow cytometric analysis (reference value: 0.2 %); type: functional; conditions: time 364 min, 6.067 h
[8] = tested on: MCF7; assay: Photothermal effect in human MCF7 cells assessed as temperature of cell culture medium at 1 uM irradiated with 660 nm 0.4 W/cm2 light for 1 min (reference value: 26 degreeC); type: ADME, cell-based; conditions: mcf7, 1 min
[9] = tested on: MCF7; assay: Photothermal effect in human MCF7 cells assessed as temperature of cell culture medium at 1 uM irradiated with 660 nm 0.4 W/cm2 light for 2 min (reference value: 26 degreeC); type: ADME, cell-based; conditions: mcf7, 2 min
[10] = tested on: MCF7; assay: Photothermal effect in human MCF7 cells assessed as temperature of cell culture medium at 1 uM irradiated with 660 nm 0.4 W/cm2 light for 3 min (reference value: 26 degreeC); type: ADME, cell-based; conditions: mcf7, 0.05 h
[11] = tested on: MCF7; assay: Antitumor activity against human MCF7 cells xenografted in female BALB/c mouse model assessed as tumor regression at 5 mg/kg, iv measured after 14 days with 660 nm 0.4 W/cm2 light irradiation for 5 mins at 4 hrs of incubation time (reference value: 122.9 mm3); type: functional; conditions: time 14 day
[12] = tested on: MCF7; assay: Antitumor activity against human MCF7 cells xenografted in female BALB/c mouse model assessed as reduction in tumor weight at 5 mg/kg, iv measured after 14 days with 660 nm 0.4 W/cm2 light irradiation for 5 mins at 4 hrs of incubation time; type: functional, organism-based; conditions: time 14.0 day
[13] = tested on: Mus musculus; assay: In vivo induction of ERalpha degradation in female BALB/c mouse xenografted with human MCF7 cells assessed as decrease in ERalpha level in tumor at 5 mg/kg, iv measured after 14 days with 660 nm 0.4 W/cm2 light irradiation for 5 mins at 4 hrs of incubation time by DAPI staining based immunofluorescence analysis; type: functional, organism-based; conditions: time 14.0 day
[14] = Toxicity in female BALB/c mouse xenografted with human MCF7 cells assessed as change in body weight at 5 mg/kg, iv measured after 14 days; type: organism-based; conditions: in vivo, 336 h, time 14 day
[15] = Toxicity in female BALB/c mouse xenografted with human MCF7 cells assessed as change in hematocrit level at 5 mg/kg, iv measured after 14 days; type: organism-based; conditions: in vivo, 336 h, time 14 day
[16] = Toxicity in female BALB/c mouse xenografted with human MCF7 cells assessed as change in white blood cell level at 5 mg/kg, iv measured after 14 days; type: organism-based; conditions: in vivo, 336 h, time 14 day
[17] = Toxicity in female BALB/c mouse xenografted with human MCF7 cells assessed as change in red blood cell level at 5 mg/kg, iv measured after 14 days; type: organism-based; conditions: in vivo, 336 h, time 14 day
[18] = Toxicity in female BALB/c mouse xenografted with human MCF7 cells assessed as change in platelet level at 5 mg/kg, iv measured after 14 days; type: organism-based; conditions: in vivo, 336 h, time 14 day
[19] = Toxicity in female BALB/c mouse xenografted with human MCF7 cells assessed as change in ALT level at 5 mg/kg, iv measured after 14 days; type: organism-based; conditions: in vivo, 336 h, time 14 day
[20] = Toxicity in female BALB/c mouse xenografted with human MCF7 cells assessed as change in blood urea nitrogen level at 5 mg/kg, iv measured after 14 days; type: organism-based; conditions: in vivo, 336 h, time 14 day
[21] = Toxicity in female BALB/c mouse xenografted with human MCF7 cells assessed as effect on lung histology at 5 mg/kg, iv measured after 14 days by H and E staining based analysis; type: organism-based; conditions: in vivo, 336 h, time 14 day
[22] = tested on: MCF7; assay: cells; conditions: Homo sapiens, MCF7, 48 h
Description: Antiproliferative activity against human MCF7 cells assessed as inhibition of cell proliferation incubated for 48 hrs by MTT assay

[23] = tested on: MCF7; assay: cells; conditions: Homo sapiens, MCF7, light or radiation study
Description: Antiproliferative activity against human MCF7 cells assessed as inhibition of cell proliferation incubated for 48 hrs with 660 nm 0.4 W/cm2 light irradiation for 2 min at 6th hr of incubation time by MTT assay

[24] = in vivo; conditions: Sprague-Dawley, rat, iv, 5 mg/kg
Description: Cmax in Sprague-Dawley rat at 5 mg/kg, iv measured after 0.5 to 168 hrs by LC-MS analysis

[25] = in vivo; conditions: Sprague-Dawley, rat, iv, 5 mg/kg; remark: listed apart in the source
Description: AUC (0 to infinity) in Sprague-Dawley rat at 5 mg/kg, iv measured after 0.5 to 168 hrs by LC-MS analysis

[26] = in vivo; conditions: Sprague-Dawley, rat, po, 15 mg/kg
Description: Cmax in Sprague-Dawley rat at 15 mg/kg, po administered via gavage and measured after 0.5 to 168 hrs by LC-MS analysis

T [8]: 27.3 °C
T [9]: 28.4 °C
T [10]: 29 °C
IC50 [22]: 25.1 µM
IC50 [23]: 0.29 µM
Cmax [24]: 30.2 ng/mL
AUC(0-inf) [25]: 279 ng·h/mL
Cmax [26]: 17.5 ng/mL
Compound: CCN(CC)c1ccc2nc3c4ccccc4/c(=N\CCCCCCC(=O)NCCOc4ccc(C(=O)c5c(-c6ccc(O)cc6)sc6cc(O)ccc56)cc4)cc-3sc2c1
Activity [1]: Active
Activity [2]: Active
IC50 at 48 h [3]: > 100 µM
Activity [4]: 0.7%
Activity [5]: 5.5%
Activity [6]: 6.5%
Activity [7]: 47.8%
Activity [11]: 45.3 mm3
Activity [12]: Active; Significant Performance Than Faslodex Observed
Activity [13]: Active; Superior To That Of Faslodex
Activity [14]: Non-toxic
Activity [15]: Non-toxic
Activity [16]: Non-toxic
Activity [17]: Non-toxic
Activity [18]: Non-toxic
Activity [19]: Non-toxic
Activity [20]: Non-toxic
Activity [21]: Non-toxic
